# Source: patent US20220331322A1, “COMPOUND FOR INHIBITING CELL DEATH” (Christian-Albrechts-Universität zu Kiel, priority 2019, published 2022)
# Where a SMILES comes first, the peptide text is derived from it. The star is where a group is joined. Cbz = O=C(OCc1ccccc1)*; CH2F = FC*
# Columns and labels:
# RIPK1 = molecular target: T1, RIPK1 (Homo sapiens, UniProt Q13546); test: KINOMEscan profiling kinase assay
# T1 sequence (Q13546 1-671): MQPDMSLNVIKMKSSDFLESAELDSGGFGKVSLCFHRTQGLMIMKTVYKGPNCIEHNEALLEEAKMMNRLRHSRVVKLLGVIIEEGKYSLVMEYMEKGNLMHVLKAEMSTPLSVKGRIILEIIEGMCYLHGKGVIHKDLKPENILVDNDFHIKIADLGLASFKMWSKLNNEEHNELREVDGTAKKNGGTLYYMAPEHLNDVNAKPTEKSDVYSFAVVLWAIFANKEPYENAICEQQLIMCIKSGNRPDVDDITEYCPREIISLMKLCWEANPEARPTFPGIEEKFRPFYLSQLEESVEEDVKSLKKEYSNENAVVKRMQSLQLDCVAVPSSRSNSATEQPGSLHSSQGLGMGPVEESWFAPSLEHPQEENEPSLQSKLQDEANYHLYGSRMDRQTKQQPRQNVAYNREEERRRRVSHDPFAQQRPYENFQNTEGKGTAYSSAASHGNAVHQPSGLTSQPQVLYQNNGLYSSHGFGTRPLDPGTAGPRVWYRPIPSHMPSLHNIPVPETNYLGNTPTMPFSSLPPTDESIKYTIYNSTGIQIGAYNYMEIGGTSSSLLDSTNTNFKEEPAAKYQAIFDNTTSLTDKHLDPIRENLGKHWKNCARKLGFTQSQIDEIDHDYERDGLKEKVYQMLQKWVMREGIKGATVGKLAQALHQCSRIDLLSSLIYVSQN
# Description: To clarify, a KINOMEscan™ profiling kinase assay was performed. […] Dissociation constants (Kd) for test compound-kinase interactions are calculated by measuring the amount of kinase captured on the solid support as a function of the test compound concentration.
# L929 cells [1] = test: Time profile of blocking TZ-induced necroptosis, FACS (7-AAD/Annexin V); format: cell-based, murine; conditions: L929, 10 ng/ml TNF-α + 25 μM zVAD (TZ), 24 h; primidone 1 mM, Nec-1s 25 μM; one representative experiment of three
# Description: The time profile of primidone for blocking cell death was compared to the one of Nec-1s. For this purpose, murine L929 cells were stimulated at 37° C. for 24 h with 10 ng/ml TNF-α+25 μM zVAD (TZ) in the presence of 1 mM primidone and 25 μM Nec-1s, respectively, for the indicated durations. Nec-1s and primidone were added 30 min before, 60 min and 180 min after the induction of RIPK1-mediated necroptosis, respectively. Cell death was quantified by FACS analysis using 7-amino-actinomycin D and phosphatidylserine accessibility (Annexin V staining) as markers.
# L929 cells [2] = test: TLR3-mediated cell death induced by poly (I:C) + zVAD; format: cell-based, murine; conditions: L929, 1 μg/ml poly (I:C) + 25 μM zVAD, 24 h; primidone 1 mM, Nec-1s 20 μM
# Description: Cell death was induced by activation of the Toll-like receptor 3 (TLR3). TLR3 is mainly expressed on immune cells, where it senses pathogen-associated molecular patterns and initiates innate immune response. The TLR3 agonist poly (I:C) was developed to mimic pathogens infection and boost immune system activation. In experimental models, poly (I:C) is known to induce regulated cell death in cells expressing TLR3. To examine whether primidone also blocks TLR3-mediated cell death, murine L929 cells were stimulated for 24 h at 37° C. with vehicle (a), 1 μg/ml of the TLR3 ligand poly (I:C) alone (b) or in combination with 25 μM zVAD (c). In addition, cells were stimulated with 1 μg/ml poly (I:C), 25 μM zVAD and 20 μM Nec-1s (d) and with 1 μg/ml poly (I:C), 25 μM zVAD and 1 mM primidone (e).
# L929 cells [3] = test: Stimulation assay: TNF-α + 5Z-7 (± zVAD) induced RIPK1-dependent apoptosis/necroptosis; format: cell-based, murine; conditions: primidone 1 mM, Nec-1s 20 μM; for Block of RIPK1-dependent apoptosis (RDA): L929, 10 ng/ml TNF-α + 1 μM 5Z-7, 24 h, zVAD 25 μM
# Description: Murine fibroblasts (L929 cells) were stimulated for 24 h at 37° C. in the presence of (a) vehicle, (b) 10 ng/ml tumor necrosis factor alpha (TNF-α), (c) 1 μM 5Z-7-oxozeaenol (5Z-7), (d) a combination of 10 ng/ml TNF-α and 1 μM 5Z-7, (e) a combination of 10 ng/ml TNF-α, 1 μM 5Z-7, and 20 μM necrostatin-1 (Nec-1s), (f) a combination of 10 ng/ml TNF-α, 1 μM 5Z-7, and 1 mM primidone (primidone is referred to in the Figures as compound A), (g) a combination of 10 ng/ml TNF-α, 1 μM 5Z-7, and 25 μM zVAD, (h) a combination of 10 ng/ml TNF-α, 1 μM 5Z-7, and 20 μM Nec-1s, and (i) a combination of 10 ng/ml TNF-α, 1 μM 5Z-7, 25 μM zVAD, and 1 mM primidone. TNF-α is a pro-inflammatory cytokine which triggers cell survival (canonical pathway) or cell death, depending on the cellular context. 5Z-7-oxozeaenol (5Z-7) is an inhibitor of transforming growth factor activated kinase 1 (TAK1). TAK1 is an intermediate in the signaling pathway of the TNF-receptor type 1 (TNFR1), and it is known that TAK1 is essential for the prevention of TNF-induced cell death. Cells in which TAK1 is disrupted or otherwise blocked are hypersensitive to TNF-α-induced cell death due to diminished prosurvival pathways including NF-κB and reduced antioxidant enzymes which results in activation of caspases. The compound zVAD is a pan-caspase inhibitor.
# L929 cells [4] = test: TZ-induced RIPK1-dependent necroptosis, metabolites; format: cell-based, murine; conditions: L929, 10 ng/ml TNF-α + 25 μM zVAD, 24 h; 1 mM PEMA or PB
# Description: Murine fibroblasts (L929 cells) were incubated for 24 h at 37° C. in the presence of (a) vehicle, (b) 1 mM PEMA or PB, respectively, (c) a combination of 10 ng/ml TNF-α+25 μM zVAD (TZ), and (d) a combination of TZ+PEMA or TZ+PB, respectively.
# Jurkat cells = test: Anti-Fas antibody induced RIPK1-independent apoptosis; format: cell-based, human; conditions: 5 ng/ml anti-Fas antibody, 5 h, zVAD 25 μM, primidone 1 mM
# Description: To this end, human T cells (Jurkat cells) were incubated for 5 h at 37° C. in the presence of (a) vehicle, (b) 5 ng/ml anti-Fas antibody, (c) 5 ng/ml anti-Fas antibody in combination with 25 μM of the pan-caspase inhibitor zVAD, and (d) 5 ng/ml anti-Fas antibody in combination with 1 mM primidone. The addition of the anti-Fas antibody induces apoptosis, a caspase-dependent form of regulated cell death that can be inhibited by the addition of the pan-caspase inhibitor zVAD.
smiles,measurement,setting,value
CN1C(=O)NC(Cc2c[nH]c3c(Cl)cccc23)C1=O (stereo not shown) [Nec-1s],Binding to RIPK1 kinase domain (prevention of kinase binding to immobilized ligand),RIPK1,prevents the kinase from binding to an immobilized ligand
same,"Cells still alive, compound added 60 min after induction of cell death",L929 cells [1],85.0%
same,"Cells still alive, compound added 3 hours after induction of cell death",L929 cells [1],16.3%
same,Protection from RIPK1-mediated cell death induced by poly (I:C) and zVAD,L929 cells [2],effectively protect cells
same,Block of RIPK1-dependent necroptosis,"L929 cells [3]; L929, 10 ng/ml TNF-α + 1 μM 5Z-7 + 25 μM zVAD, 24 h",prevents RIPK-1 dependent cell death
same,Block of RIPK1-dependent apoptosis (RDA),L929 cells [3],can be blocked
"CCC1(c2ccccc2)C(=O)NC(=O)NC1=O [PB, 5-Ethyl-5-phenyl-1,3-diazinane-2,4,6-trione]",Block of TZ-induced RIPK1-dependent cell death (necroptosis),L929 cells [4],can be blocked
"CCC(C(N)=O)(C(N)=O)c1ccccc1 [PEMA, 2-Ethyl-2-phenylmalonamide]",Block of TZ-induced RIPK1-dependent cell death (necroptosis),L929 cells [4],can be blocked
CC(NC(=O)C(NC(=O)OCc1ccccc1)C(C)C)C(=O)NC(CC(=O)O)C(=O)CF (stereo not drawn) [zVAD] (Cbz-Val-Ala-Asp-CH2F; configuration not given here),"Inhibition of anti-Fas antibody induced cell death (caspase-dependent, RIPK1-independent)",Jurkat cells,completely blocked
same,Block of RIPK1-dependent apoptosis (RDA),L929 cells [3],cell death occurs
